Data taken from US11702404B2, “GLP-1R modulating compounds” (priority 2019, dated 2023).
Where two headings read alike, the source gives them in different places.

Tests used:
GLP-1R = GLP-1R (Homo sapiens, UniProt P43220); assay: GLP-1R activation: cAMP increase in CHO cells stably expressing GLP-1R; type: cell-based; conditions: read-out: EC50
[1] = Microsomal stability, human liver microsomes (predicted hepatic clearance); conditions: predicted from in vitro microsomal stability data
[2] = cAMP increase, CHO cells stably expressing GLP-1R, 10 point dose response, 30 minutes incubation

Chain of GLP-1R (P43220 24-463): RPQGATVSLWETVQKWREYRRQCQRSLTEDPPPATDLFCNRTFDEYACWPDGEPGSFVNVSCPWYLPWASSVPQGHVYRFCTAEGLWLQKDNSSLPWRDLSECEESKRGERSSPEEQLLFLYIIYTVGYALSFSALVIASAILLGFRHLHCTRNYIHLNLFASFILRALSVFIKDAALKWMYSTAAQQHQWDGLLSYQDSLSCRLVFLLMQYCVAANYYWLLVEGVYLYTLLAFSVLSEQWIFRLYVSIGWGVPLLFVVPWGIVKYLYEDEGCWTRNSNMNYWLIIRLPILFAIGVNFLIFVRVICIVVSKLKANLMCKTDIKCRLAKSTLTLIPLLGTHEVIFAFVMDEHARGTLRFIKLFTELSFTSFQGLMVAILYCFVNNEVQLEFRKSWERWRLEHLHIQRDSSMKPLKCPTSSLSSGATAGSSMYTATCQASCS

SMILES	EC50 (GLP-1R; [2]) [nM]	Predicted Hepatic Clearance (Pred. Cl.) [1] [mL/min/kg]	EC50 (GLP-1R) [nM]
COCCn1c(Cc2ccc(-c3ncc(F)c(OCc4ccc(C#N)cc4F)n3)cc2F)nc2ccc(C(=O)O)cc21 [Example 126, 2-(4-(4-((4-cyano-2-fluorobenzyl)oxy)-5-fluoropyrimidin-2-yl)-2-fluorobenzyl)-1-(2-methoxyethyl)-1H-benzo[d]imidazole-6-carboxylic acid]	3.7	4.67	–
CO[C@@H]1CCCC[C@@H]1n1c(Cc2cc(F)c(-c3cccc(OCc4ccc(C#N)cc4F)n3)cc2F)nc2ccc(C(=O)O)cc21 [Example 725]	3.68	9.5	–
COC[C@H]1C[C@@H](n2c(Cc3cc(F)c(-c4cccc(OCc5ccc(C#N)cc5F)n4)cc3F)nc3ccc(C(=O)O)cc32)C1 [Example 734]	168	8	–
COCCn1c(Cc2ccc(-c3cc(C#N)cc(OCc4ccc(C#N)cc4F)c3)cc2F)nc2ccc(C(=O)O)cc21 [Example 29, 2-((3′-cyano-5′-((4-cyano-2-fluorobenzyl)oxy)-3-fluoro-[1,1′-biphenyl]-4-yl)methyl)-1-(2-methoxyethyl)-1H-benzo[d]imidazole-6-carboxylic acid]	57	5.17	–
N#Cc1ccc(COc2nc(-c3ccc(Cc4nc5c(F)cc(C(=O)O)cc5n4C[C@@H]4CCO4)c(F)c3)ccc2F)c(F)c1 [Example 132, (S)-2-(4-(6-((4-cyano-2-fluorobenzyl)oxy)-5-fluoropyridin-2-yl)-2-fluorobenzyl)-4-fluoro-1-(oxetan-2-ylmethyl)-1H-benzo[d]imidazole-6-carboxylic acid]	0.05	3.58	–
N#Cc1ccc(COc2cccc(-c3ccc(Cc4nc5ccc(C(=O)O)cc5n4C[C@@H]4CCOC4)c(F)c3)n2)c(F)c1 [Example 197, (S)-2-(4-(6-((4-cyano-2-fluorobenzyl)oxy)pyridin-2-yl)-2-fluorobenzyl)-1-((tetrahydrofuran-3-yl)methyl)-1H-benzo[d]imidazole-carboxylic acid]	7.77	6	–
COCCn1c(Cc2ccc(-c3cccc(OCc4ccc(C#N)cc4F)n3)cc2C#CC(C)(C)O)nc2ccc(C(=O)O)cc21 [Example 419, 2-(4-(6-((4-cyano-2-fluorobenzyl)oxy)pyridin-2-yl)-2-(3-hydroxy-3-methylbut-1-yn-1-yl)benzyl)-1-(2-methoxyethyl)-1H-benzo[d]imidazole-6-carboxylic acid]	20.7	7.33	–
N#Cc1ccc(COc2ccc(F)c(-c3cc(F)c(Cc4nc5c(F)cc(C(=O)O)cc5n4C[C@@H]4CCO4)cc3F)n2)c(F)c1 [Example 792]	0.04	6.17	–
COc1cc(Cl)ccc1COc1nccc(-c2cc(F)c(Cc3nc4ccc(C(=O)O)cc4n3CC3(CF)CC3)cc2F)n1 [Example 414, 2-(4-(2-((4-chloro-2-methoxybenzyl)oxy)pyrimidin-4-yl)-2,5-difluorobenzyl)-1-((1-(fluoromethyl)cyclopropyl)methyl)-1H-benzo[d]imidazole-6-carboxylic acid]	0.44	12	–
COCCn1c(Cc2cc(F)c(-c3cccc(OCc4ccc(-c5ncccn5)cc4F)n3)cc2F)nc2ccc(C(=O)O)cc21 [Example 911, 2-[[2,5-difluoro-4-[6-[(2-fluoro-4-pyrimidin-2-yl-phenyl)methoxy]-2-pyridyl]phenyl]methyl]-3-(2-methoxyethyl)benzimidazole-5-carboxylic acid]	55.6	1.83	–
COCCn1c(Cc2ccc(-c3cccc(OCc4ccc(C#N)cc4F)n3)cc2-c2ccc(C#N)cc2)nc2ccc(C(=O)O)cc21 [Example 193, 2-((4′-cyano-5-(6-((4-cyano-2-fluorobenzyl)oxy)pyridin-2-yl)-[1,1′-biphenyl]-2-yl)methyl)-1-(2-methoxyethyl)-1H-benzo[d]imidazole-6-carboxylic acid]	131	6.83	–
N#Cc1ccc(COc2cccc(-c3ccc(Cc4nc5ccc(C(=O)O)cc5n4CC4CCS4(=O)=O)c(F)c3)n2)c(F)c1 (single isomer, unassigned) [Example 69, 2-(4-(6-((4-cyano-2-fluorobenzyl)oxy)pyridin-2-yl)-2-fluorobenzyl)-1-((1,1-dioxidothietan-2-yl)methyl)-1H-benzo[d]imidazole-6-carboxylic acid]	12	<1.83	–
CO[C@@H](CO)Cn1c(Cc2cc(F)c(-c3cccc(OCc4ccc(C#N)cc4F)n3)cc2F)nc2ccc(C(=O)O)cc21 [Example 619]	3.1	6.67	–
O=C(O)c1ccc2nc(Cc3ccc(-c4cccc(OCc5ccc(Cl)cc5F)n4)c(F)c3)n(CC3(CF)CC3)c2c1 [Example 535, 2-(4-(6-((4-chloro-2-fluorobenzyl)oxy)pyridin-2-yl)-3-fluorobenzyl)-1-((1-(fluoromethyl)cyclopropyl)methyl)-1H-benzo[d]imidazole-6-carboxylic acid]	0.66	4.17	–
COCCn1c(Cc2ccc(-c3cccc(OCc4ccc(C#N)cc4F)n3)cc2OC)nc2ccc(C(=O)O)cc21 [Example 33, 2-(4-(6-((4-cyano-2-fluorobenzyl)oxy)pyridin-2-yl)-2-methoxybenzyl)-1-(2-methoxyethyl)-1H-benzo[d]imidazole-6-carboxylic acid]	26.9	5	–
N#Cc1ccc(COc2cccc(-c3cc(F)c(Cc4nc5c(F)cc(C(=O)O)cc5n4C[C@@H]4CCO4)cc3F)n2)c(F)c1 [Example 896]	0.03	4.5	–
COCCn1c(Cc2ccc(-c3cccc(OCc4ccc(C#N)cc4F)n3)c(F)c2)nc2c(F)cc(C(=O)O)cc21 [Example 681]	5.64	3.33	–
N#Cc1cc(F)c(COc2cccc(-c3cc(F)c(Cc4nc5ccc(C(=O)O)cc5n4C[C@@H]4CCO4)cc3F)n2)cc1F [Example 798]	0.12	5.33	–
Cc1csc(NCCn2c(Cc3cc(F)c(-c4ccnc(OCc5ccc(C#N)cc5F)n4)cc3F)nc3ccc(C(=O)O)cc32)n1 [Example 832]	–	14.3	2330
NC(=O)c1ccc(COc2cccc(-c3cc(F)c(Cc4nc5ccc(C(=O)O)cc5n4C[C@@H]4CCO4)cc3F)n2)cn1 [Example 826]	0.28	3.67	–
COCCn1c(Cc2ccc(-c3cccc(OCc4cccc5ncsc45)n3)cc2F)nc2ccc(C(=O)O)cc21 [Example 148, 2-(4-(6-(benzo[d]thiazol-7-ylmethoxy)pyridin-2-yl)-2-fluorobenzyl)-1-(2-methoxyethyl)-1H-benzo[d]imidazole-6-carboxylic acid]	2050	11.5	–
N#Cc1ccc(COc2cccc(-c3cc(F)c(Cc4nc5ccc(C(=O)O)cc5n4[C@@H]4CCNC4=O)cc3F)n2)c(F)c1 [Example 631]	74.9	3	–
COC[C@@H](CF)n1c(Cc2cc(F)c(-c3cccc(OCc4ccc(C#N)cc4F)n3)cc2F)nc2ccc(C(=O)O)cc21 [Example 726]	7.26	5.5	–
COCCn1c(Cc2cc(F)c(-c3cccc(OCc4ccc(-c5ccccn5)cc4F)n3)cc2F)nc2ccc(C(=O)O)cc21 [Example 910]	33.4	2.83	–
N#Cc1ccc(COc2ccc(F)c(-c3cc(F)c(Cc4nc5c(F)cc(C(=O)O)cc5n4CC4(CF)CC4)cc3F)n2)c(F)c1 [Example 760]	0.26	6.5	–
N#Cc1ccc(COc2nc(-c3ccc(Cc4nc5ccc(C(=O)O)cc5n4C[C@@H]4CCO4)c(F)c3)ccc2F)c(F)c1 [Example 128, (S)-2-(4-(6-((4-cyano-2-fluorobenzyl)oxy)-5-fluoropyridin-2-yl)-2-fluorobenzyl)-1-(oxetan-2-ylmethyl)-1H-benzo[d]imidazole-6-carboxylic acid]	0.51	<1.83	–
COC(Cn1c(Cc2ccc(-c3cccc(OCc4ccc(C#N)cc4F)n3)cc2F)nc2ccc(C(=O)O)cc21)C(=O)Nc1nccs1 (single isomer, unassigned) [Example 338, 2-(4-(6-((4-cyano-2-fluorobenzyl)oxy)pyridin-2-yl)-2-fluorobenzyl)-1-(2-methoxy-3-oxo-3-(thiazol-2-ylamino)propyl)-1H-benzo[d]imidazole-6-carboxylic acid]	2510	13	–
COCCn1c(Cc2ccc(-c3cccc(OCc4ccc(C#N)cc4OC(F)F)n3)cc2F)nc2ccc(C(=O)O)cc21 [Example 234, 2-(4-(6-((4-cyano-2-(difluoromethoxy)benzyl)oxy)pyridin-2-yl)-2-fluorobenzyl)-1-(2-methoxyethyl)-1H-benzo[d]imidazole-6-carboxylic acid]	6.95	<1.83	–
COCCn1c(Cc2ccc(-c3cccc(OCc4ccccc4F)n3)cc2F)nc2ccc(C(=O)O)cc21 [Example 514, 2-(2-fluoro-4-(6-((2-fluorobenzyl)oxy)pyridin-2-yl)benzyl)-1-(2-methoxyethyl)-1H-benzo[d]imidazole-6-carboxylic acid]	60.8	15.2	–
COCCn1c(Cc2ccc(-c3cc(C(F)(F)F)cc(OCc4ccc(C#N)cc4F)n3)cc2F)nc2ccc(C(=O)O)cc21 [Example 90, 2-(4-(6-((4-cyano-2-fluorobenzyl)oxy)-4-(trifluoromethyl)pyridin-2-yl)-2-fluorobenzyl)-1-(2-methoxyethyl)-1H-benzo[d]imidazole-6-carboxylic acid]	72.4	10	–
